Patent US20120027862A1, “Azelaic acid-comprising formulation with added pigment” (INTENDIS GMBH, priority 2010, published 2012)
Values joined by “and” are separate entries in the source; they are usually repeats but may differ in a detail not shown here. Identical values can stand only once.

How the values were obtained:
Type in all cases: cell-based, human
IL-1β = IL-1β in supernatants of UVB-irradiated HaCaT cells; conditions: UVB 100 mJ irradiated, azelaic acid 20 mM, pigment 3%
Experimental: (§1) HaCaT cells originate from a spontaneously immortalized permanent human keratinocyte cell line established by long-term cultivation of adult human keratinocytes under reduced calcium concentration and elevated temperature (Boukamp et al. J Cell Biol 106:761-771, 1988). HaCaT cells were propagated in culture medium. This consists of 88 ml DMEM/Ham's F12 w/o glutamine, 10 ml foetal calf serum, 1 ml penicillin/streptomycin solution with 10,000 units/ml and 1 ml of glutamine. […] HaCaT cells were sown in 6-well or 12-well plates at a cell number of 3×10^5 and 1.5×10^5 cells/well, respectively. The cells were cultivated to about 80% confluence in culture medium. 2 h prior to the intended UV irradiation, the cells were incubated with the above-mentioned substances. Immediately before the irradiation, the cells were washed 2× with PBS and irradiated therein. Irradiation was with UVB (spectrum: 280-360 nM, max. 320 nM) in a Waldmann-UVB source UV7002 at 100 mJ. After the UV irradiation, the cells were irradiated in culture medium in the presence and absence of the abovementioned substances. The cultures were stopped 24 h or 48 h after the UVB irradiation, and the supernatant was removed and centrifuged to remove debris and titanium dioxide-coated potassium aluminium silicate. All cultures were set up in triplicate. The supernatants were frozen at -80° C. until further use. The protein concentration was determined using a commercial kit from Meso Scale Discovery, Gaithersburg, Md., USA. The test was carried out in accordance with the instructions of the manufacturer (www.mesoscale.com). […] The samples were then washed once more, 150 μl of read buffer were pipetted into the mixture and the electrochemiluminescence was measured in an MSD Sector plate reader. […] The following cell cultures were prepared: • unirradiated HaCaTs • irradiated HaCaTs (100 mJ) • irradiated HaCaTs (100 mJ) in the presence of azelaic acid, • irradiated HaCaTs (100 mJ) in the presence of azelaic acid and titanium dioxide-coated potassium aluminium silicate The following reagents were used to treat the cells: • azelaic acid, Fluka, batch S3317131508B29, 20 mM • titanium dioxide-coated potassium aluminium silicate, Merck Darmstadt, batch W08012807X, 3% The following cytokines/chemokines were analyzed: • IL-1β • IL-6 • TNF-α • VEGF • MCP-1=CCL2 HaCaT cells were cultivated in triplicates, irradiated with 100 mJ UVB and then cultivated in the presence or absence of azelaic acid and, if appropriate, titanium dioxide-coated potassium aluminium silicate or the combination thereof for 24 or 48 h. […] The cytokines IL-1β (A), IL-6 (B), TNFα (C), VEGF (D) and MCP-1/CCL2 (E) were measured in the supernatant in triplicate after 24 (series I) and 48 h (series II) using Mesoscale. […]

IL-6 = IL-6 in supernatants of UVB-irradiated HaCaT cells; conditions: UVB 100 mJ irradiated, azelaic acid 20 mM, pigment 3%
Experimental: (§2) HaCaT cells originate from a spontaneously immortalized permanent human keratinocyte cell line established by long-term cultivation of adult human keratinocytes under reduced calcium concentration and elevated temperature (Boukamp et al. J Cell Biol 106:761-771, 1988). HaCaT cells were propagated in culture medium. This consists of 88 ml DMEM/Ham's F12 w/o glutamine, 10 ml foetal calf serum, 1 ml penicillin/streptomycin solution with 10,000 units/ml and 1 ml of glutamine. […] HaCaT cells were sown in 6-well or 12-well plates at a cell number of 3×10^5 and 1.5×10^5 cells/well, respectively. The cells were cultivated to about 80% confluence in culture medium. 2 h prior to the intended UV irradiation, the cells were incubated with the above-mentioned substances. Immediately before the irradiation, the cells were washed 2× with PBS and irradiated therein. Irradiation was with UVB (spectrum: 280-360 nM, max. 320 nM) in a Waldmann-UVB source UV7002 at 100 mJ. […] The protein concentration was determined using a commercial kit from Meso Scale Discovery, Gaithersburg, Md., USA. […] The samples were then washed once more, 150 μl of read buffer were pipetted into the mixture and the electrochemiluminescence was measured in an MSD Sector plate reader. […] The following cell cultures were prepared: • unirradiated HaCaTs • irradiated HaCaTs (100 mJ) • irradiated HaCaTs (100 mJ) in the presence of azelaic acid, • irradiated HaCaTs (100 mJ) in the presence of azelaic acid and titanium dioxide-coated potassium aluminium silicate The following reagents were used to treat the cells: • azelaic acid, Fluka, batch S3317131508B29, 20 mM • titanium dioxide-coated potassium aluminium silicate, Merck Darmstadt, batch W08012807X, 3% The following cytokines/chemokines were analyzed: • IL-1β • IL-6 • TNF-α • VEGF • MCP-1=CCL2 HaCaT cells were cultivated in triplicates, irradiated with 100 mJ UVB and then cultivated in the presence or absence of azelaic acid and, if appropriate, titanium dioxide-coated potassium aluminium silicate or the combination thereof for 24 or 48 h. […]

TNF-α = TNF-α in supernatants of UVB-irradiated HaCaT cells; conditions: UVB 100 mJ irradiated, azelaic acid 20 mM, pigment 3%
Experimental: as §2

MCP-1 = test: MCP-1/CCL2 in supernatants of UVB-irradiated HaCaT cells; conditions: UVB 100 mJ irradiated, azelaic acid 20 mM, pigment 3%
Experimental: as §1

HaCaT cells = test: Overall anti-inflammatory effect in UVB-irradiated skin cell cultures (HaCaT); conditions: addition of azelaic acid
Experimental: HaCaT cells originate from a spontaneously immortalized permanent human keratinocyte cell line established by long-term cultivation of adult human keratinocytes under reduced calcium concentration and elevated temperature (Boukamp et al. J Cell Biol 106:761-771, 1988). HaCaT cells were propagated in culture medium. This consists of 88 ml DMEM/Ham's F12 w/o glutamine, 10 ml foetal calf serum, 1 ml penicillin/streptomycin solution with 10,000 units/ml and 1 ml of glutamine. […] HaCaT cells were sown in 6-well or 12-well plates at a cell number of 3×10^5 and 1.5×10^5 cells/well, respectively. The cells were cultivated to about 80% confluence in culture medium. 2 h prior to the intended UV irradiation, the cells were incubated with the above-mentioned substances. Immediately before the irradiation, the cells were washed 2× with PBS and irradiated therein. […] The protein concentration was determined using a commercial kit from Meso Scale Discovery, Gaithersburg, Md., USA. […] The samples were then washed once more, 150 μl of read buffer were pipetted into the mixture and the electrochemiluminescence was measured in an MSD Sector plate reader. […] The cytokines IL-1β (A), IL-6 (B), TNFα (C), VEGF (D) and MCP-1/CCL2 (E) were measured in the supernatant in triplicate after 24 (series I) and 48 h (series II) using Mesoscale. […]

VEGF = VEGF in supernatants of UVB-irradiated HaCaT cells
Experimental: HaCaT cells originate from a spontaneously immortalized permanent human keratinocyte cell line established by long-term cultivation of adult human keratinocytes under reduced calcium concentration and elevated temperature (Boukamp et al. J Cell Biol 106:761-771, 1988). HaCaT cells were propagated in culture medium. This consists of 88 ml DMEM/Ham's F12 w/o glutamine, 10 ml foetal calf serum, 1 ml penicillin/streptomycin solution with 10,000 units/ml and 1 ml of glutamine. […] HaCaT cells were sown in 6-well or 12-well plates at a cell number of 3×10^5 and 1.5×10^5 cells/well, respectively. The cells were cultivated to about 80% confluence in culture medium. 2 h prior to the intended UV irradiation, the cells were incubated with the above-mentioned substances. Immediately before the irradiation, the cells were washed 2× with PBS and irradiated therein. Irradiation was with UVB (spectrum: 280-360 nM, max. 320 nM) in a Waldmann-UVB source UV7002 at 100 mJ. After the UV irradiation, the cells were irradiated in culture medium in the presence and absence of the abovementioned substances. The cultures were stopped 24 h or 48 h after the UVB irradiation, and the supernatant was removed and centrifuged to remove debris and titanium dioxide-coated potassium aluminium silicate. All cultures were set up in triplicate. The supernatants were frozen at -80° C. until further use. The protein concentration was determined using a commercial kit from Meso Scale Discovery, Gaithersburg, Md., USA. The test was carried out in accordance with the instructions of the manufacturer (www.mesoscale.com). After addition of the blocking solution to the plates precoated with scavenger antibodies, the samples were incubated for 1 h and then washed. […] After this time, the detection antibody was added for 1 h. The samples were then washed once more, 150 μl of read buffer were pipetted into the mixture and the electrochemiluminescence was measured in an MSD Sector plate reader. […] The following cell cultures were prepared: • unirradiated HaCaTs • irradiated HaCaTs (100 mJ) • irradiated HaCaTs (100 mJ) in the presence of azelaic acid, • irradiated HaCaTs (100 mJ) in the presence of azelaic acid and titanium dioxide-coated potassium aluminium silicate The following reagents were used to treat the cells: • azelaic acid, Fluka, batch S3317131508B29, 20 mM • titanium dioxide-coated potassium aluminium silicate, Merck Darmstadt, batch W08012807X, 3% The following cytokines/chemokines were analyzed: • IL-1β • IL-6 • TNF-α • VEGF • MCP-1=CCL2 HaCaT cells were cultivated in triplicates, irradiated with 100 mJ UVB and then cultivated in the presence or absence of azelaic acid and, if appropriate, titanium dioxide-coated potassium aluminium silicate or the combination thereof for 24 or 48 h. The supernatants were then used to measure proinflammatory cytokines. The cytokines IL-1β (A), IL-6 (B), TNFα (C), VEGF (D) and MCP-1/CCL2 (E) were measured in the supernatant in triplicate after 24 (series I) and 48 h (series II) using Mesoscale. What is shown are the mean values and also the respective individual values of the protein determinations.

For `O=C(O)CCCCCCCC(=O)O` [Azelaic acid, azelaic acid], the “IL-1β in HACaT cell supernatants after 24 h, mean” value (IL-1β; 24 h, mean n = 3) was 5.8 pg/L, the “IL-1β in HACaT cell supernatants after 24 h, individual values #1-#3” value (IL-1β; 24 h, single cultures) was 3.1 pg/l (2×) and 11.3 pg/l and the “IL-1β in HACaT cell supernatants after 48 h, mean” value (IL-1β; 48 h, mean n = 3) was 10.4 pg/L. The IL-1β in HACaT cell supernatants after 48 h, individual values #1-#3 (IL-1β; 48 h, single cultures) was 7.2 pg/mL and 14.3 pg/mL and 9.7 pg/mL, the “IL-6 in HACaT cell supernatants after 24 h, mean” value (IL-6; 24 h, mean n = 3) was 44.3 pg/L and the “IL-6 in HACaT cell supernatants after 24 h, individual values #1-#3” value (IL-6; 24 h, single cultures) was 24.7 pg/L and 70.9 pg/L and 37.4 pg/L. The “IL-6 in HACaT cell supernatants after 48 h, mean” value (IL-6; 48 h, mean n = 3) was 120.7 pg/L, the “TNF-α in HACaT cell supernatants after 24 h, mean” value (TNF-α; 24 h, mean n = 3) was 7.2 pg/L and the “TNF-α in HACaT cell supernatants after 24 h, individual values #1-#3” value (TNF-α; 24 h, single cultures) was 7.6 pg/L and 21.63 pg/L and 6.7 pg/L. The “TNF-α in HACaT cell supernatants after 48 h, mean” value (TNF-α; 48 h, mean n = 3) was 30.0 pg/L, the “MCP-1 in HACaT cell supernatants after 24 h, mean” value (MCP-1; 24 h, mean n = 3) was 683.2 pg/L and the “MCP-1 in HACaT cell supernatants after 24 h, individual values #1-#3” value (MCP-1; 24 h, single cultures) was 520.8 pg/L and 908.9 pg/L and 619.9 pg/L. For the same compound, the “MCP-1 in HACaT cell supernatants after 48 h, mean” value (MCP-1; 48 h, mean n = 3) was 1190.1 pg/L, the “MCP-1 in HACaT cell supernatants after 48 h, individual values #1-#3” value (MCP-1; 48 h, single cultures) was 1116.1 pg/L and 1279.9 pg/L and 1174.3 pg/L and the “induction of the inflammatory cytokines (IL-1β, IL-6, TNF-α) after irradiation of keratinocytes” value (HaCaT cells) was “can be reduced”. The “VGEF in HACaT cell supernatants after 24 h, mean” value (VEGF; UVB 100 mJ irradiated, 24 h, azelaic acid 20 mM, pigment 3%, mean n = 3) was 692.4 pg/L, the “VGEF in HACaT cell supernatants after 24 h, individual values #1-#3” value (VEGF; UVB 100 mJ irradiated, 24 h, azelaic acid 20 mM, pigment 3%, single cultures) was 633.4 pg/L and 1694.59 pg/L and 751.4 pg/L and the “VGEF in HACaT cell supernatants after 48 h, mean” value (VEGF; UVB 100 mJ irradiated, 48 h, azelaic acid 20 mM, pigment 3%, mean n = 3) was 3999.0 pg/L. For the same compound, the VGEF in HACaT cell supernatants after 48 h, individual values #1-#3 (VEGF; UVB 100 mJ irradiated, 48 h, azelaic acid 20 mM, pigment 3%, single cultures) was 2950 pg/mL and 5810 pg/mL and 3240 pg/mL and the “effect on the endothelial growth factor VEGF” value (VEGF; keratinocytes, azelaic acid alone) was “leads to a reduction”.
